In patent publication US20220251153A1, “PEPTIDES FOR THE TREATMENT OF RENAL DISORDERS” (THE GEORGE WASHINGTON UNIVERSITY, priority 2019, published 2022):

Columns and labels:
Assay type in all cases: in vivo, mouse
[1] = system: TNF-alpha, IL-6, Col1a1 and TGF-beta mRNA in kidneys of C57Bl/6 mice with UUO; assay: qRT-PCR of renal inflammatory and fibrotic marker mRNA after UUO; conditions: 14 days after UUO, normalized by GAPDH
From the text: (§1) C57Bl/6 control mice as well as DJ-1 knockout mice were subjected to UUO in order to examine mechanisms involved in renal tubule interstitial fibrosis in vivo and to determine if ND-13 has a protective effect against renal disease. DJ-1 knockout mice used herein were from the original F2 hybrid strain (129/SvXC57BL/6J) that contained the mutated DJ-1 allele (DJ-1−/−) backcrossed to wild-type C57BL/6J for >20 generations and genotyped. Prior to UUO, ND-13 peptide and scrambled control peptide (3 mg/kg diluted in […] of saline) were injected subcutaneously to C57Bl/6 and DJ-1 knockout mice the day before performing the complete UUO. For UUO surgery, the procedure was performed as follows. Briefly, mice were anesthetized with isofluorane (3-5% for induction and 1-3% for maintenance) and divided into two experimental groups: the UUO group and the sham operation group. In the UUO group, mice were shaved on the left side of the abdomen, a vertical incision was made through the skin with a scalpel and the skin was retracted. A second incision was made through the peritoneum to expose the kidney. The left ureter was ligated twice 15 mm below the renal pelvis with surgical silk and the ureter was then severed between the two ligatures. Then, the ligated kidney was placed gently back into its correct anatomical position and sterile saline was added to replenish loss of fluid. The incisions were sutured and mice were individually caged. Buprenorphine was used as an analgesic. 24 hours after UUO surgery, the ND-13 peptide and scrambled control peptide (3 mg/kg diluted in 100 ml of saline) were injected subcutaneously to C57Bl/6 and DJ-1 knockout mice and then injected every day thereafter for 14 days following UUO. Untreated normal C57Bl/6 mice served as a control. After 14 days, urine was collected and the mice were sacrificed. Tissues, including the kidneys, were obtained for analyses.
(§2) Next, the effect of ND-13 on mRNA expression of inflammatory and fibrotic markers in the kidneys of mice with UUO was tested. Briefly, RNA was extracted from whole renal tissue harvested from ND-13-treated C57Bl/6 and DJ-1 knockout mice 14 days after the UUO procedure. RNA extracted from untreated C57Bl/6 mice served as the control. The extracted RNA was subjected to qRT-PCR using standard methods. The mRNA expression of TNF-alpha (tumor necrosis factor alpha), IL-6 (Interleukin 6), Col1a1 (collagen, type I, alpha 1) and TGF-beta (transforming growth factor beta) were quantified by qRT-PCR in mice from each group. Data were normalized by expression of the house keeping gene GAPDH (glyceraldehyde 3-phosphate dehydrogenase). […] The increased renal expressions of TNF alpha and IL-6, and TGF-beta associated with UUO was decreased by ND-13 in both C57Bl/6 mice (FIGS. 3A, 3B, and 3D) and DJ-1 knockout mice (FIGS. 3E, 3F, and […]).

[2] = system: TNF-alpha, IL-6, Col1a1 and TGF-beta mRNA in kidneys of DJ-1 knockout mice with UUO; assay: as above; conditions: 14 days after UUO, normalized by GAPDH
From the text: as §1, §2

[3] = system: C57Bl/6 mice with unilateral ureter obstruction (UUO); assay: Urinary NGAL ELISA after UUO; conditions: urine 14 days after UUO, 3 mg/kg subcutaneously daily
From the text: as §1, with “The incisions were sutured and mice were individually caged. Buprenorphine was used as an analgesic. 24 hours after UUO surgery, the ND-13 peptide and scrambled control peptide (3 mg/kg diluted in 100 ml of saline) were injected subcutaneously to C57Bl/6 and DJ-1 knockout mice and then injected every day thereafter for 14 days following UUO. Untreated normal C57Bl/6 mice served as a control. After 14 days, urine was collected and the mice were sacrificed. Tissues, including the kidneys, were obtained for analyses.” left out

[4] = system: DJ-1 knockout mice with unilateral ureter obstruction (UUO); assay: Urinary NGAL ELISA after UUO; conditions: urine 14 days after UUO, 3 mg/kg subcutaneously daily
From the text: as §1, with “The incisions were sutured and mice were individually caged. Buprenorphine was used as an analgesic. 24 hours after UUO surgery, the ND-13 peptide and scrambled control peptide (3 mg/kg diluted in 100 ml of saline) were injected subcutaneously to C57Bl/6 and DJ-1 knockout mice and then injected every day thereafter for 14 days following UUO. Untreated normal C57Bl/6 mice served as a control. After 14 days, urine was collected and the mice were sacrificed. Tissues, including the kidneys, were obtained for analyses.” left out

[5] = system: C57Bl/6 mice with unilateral ureter obstruction (UUO); assay: Sirius Red staining of kidney sections, UUO model of renal fibrosis; conditions: 3 mg/kg subcutaneously the day before and daily for 14 days after UUO
Description: The effect of ND-13 on renal disease was then assessed. Unilateral ureter obstruction (UUO) was chosen as a model of renal disease to determine if ND-13 has a protective effect. The UUO model is an known model of human and animal kidney disease, which mimics the effects of chronic kidney disease and diabetes (i.e., diabetic nephropathy), due to its capability of generating a progressive renal (tubule interstitial) fibrosis and has advantages of good reproducibility, a short time course and the presence of a contralateral kidney as control.
C57Bl/6 control mice as well as DJ-1 knockout mice were subjected to UUO in order to examine mechanisms involved in renal tubule interstitial fibrosis in vivo and to determine if ND-13 has a protective effect against renal disease. DJ-1 knockout mice used herein were from the original F2 hybrid strain (129/SvXC57BL/6J) that contained the mutated DJ-1 allele (DJ-1−/−) backcrossed to wild-type C57BL/6J for >20 generations and genotyped. […]
Renal interstitial fibrosis was assessed in the mice by Sirius Red staining. […] Sirius Red staining was examined with an Olympus BX-41 microscope and the amount of collagen in the kidney was quantified by ImageJ software. Two images of about 70% of the renal cortical sections were used in the quantification. […]

YGRKKRRKGAEEMETVIPVD [ND-13]
renal mRNA expression of Col1a1 [1]: decreased
renal mRNA expression of IL-6 [1]: decreased
renal mRNA expression of TGF-beta [1]: decreased
renal mRNA expression of TNF-alpha [1]: decreased
renal mRNA expression of Col1a1 [2]: not DJ-1 knockout mice
renal mRNA expression of IL-6 [2]: decreased
renal mRNA expression of TGF-beta [2]: decreased
renal mRNA expression of TNF-alpha [2]: decreased
urinary NGAL (marker of renal damage) [3]: decreased urinary NGAL to control levels
urinary NGAL (marker of renal damage) [4]: not protected
renal interstitial fibrosis (collagen, Sirius Red staining) [5]: prevented fibrosis
